Measurements: ChEMBL document CHEMBL4354827, “Discovery of Novel, Potent, Brain-Permeable, and Orally Efficacious Positive Allosteric Modulator of α7 Nicotinic Acetylcholine Receptor [4-(5-(4-Chlorophenyl)-4-methyl-2-propionylthiophen-3-yl)benzenesulfonamide]: Structure-Activity Relationship and Preclinical Characterization” (J Med Chem, 2020)

How the values were obtained:
[1] = Drug metabolism in monkey liver microsomes assessed as metabolic rate at 1 uM preincubated for 5 mins followed by NADPH addition after 30 mins by LC-MS/MS analysis; assay type: ADME, Macaca mulatta, Microsome; settings: rhesus monkey, 0.5 h
[2] = Metabolic stability in dog liver microsomes assessed as compound remaining at 1 uM preincubated for 5 mins followed by NADPH addition and measured after 30 mins by LC-MS/MS analysis; assay type: ADME, Canis lupus familiaris, Microsome; settings: read-out: Stability
[3] = AUC (0 to 144 hrs) in Wistar rat at 1 mg/kg, iv after 0.083 to 144 hrs by LC-MS/MS analysis; assay type: ADME, organism-based; set-up: time < 144 hr, dose 1 mg/kg, route intravenous; settings: in vivo
[4] = AUClast in Beagle dog at 10 mg/kg, po after 0.25 to 144 hrs by LC-MS/MS analysis; assay type: ADME, organism-based, Canis lupus familiaris; set-up: time upper 144 hr, dose 10 mg/kg, time lower 0.25 hr, route oral; settings: in vivo
[5] = Cmax in BALB/c mouse at 1 mg/kg, iv after 0.083 to 144 hrs by LC-MS/MS analysis; assay type: ADME, organism-based; set-up: dose 1 mg/kg, route intravenous; settings: in vivo
[6] = Tmax in Beagle dog at 1 mg/kg, iv after 0.083 to 144 hrs by LC-MS/MS analysis; assay type: ADME, organism-based, Canis lupus familiaris; settings: in vivo
[7] = Tmax in Beagle dog at 10 mg/kg, po after 0.25 to 144 hrs by LC-MS/MS analysis; assay type: ADME, organism-based, Canis lupus familiaris; settings: in vivo
[8] = Half life in Wistar rat at 1 mg/kg, iv after 0.083 to 144 hrs by LC-MS/MS analysis; assay type: ADME, organism-based; settings: in vivo
[9] = Half life in BALB/c mouse at 10 mg/kg, po after 0.25 to 144 hrs by LC-MS/MS analysis; assay type: ADME, organism-based; settings: in vivo
[10] = Volume of distribution at steady state in Wistar rat at 1 mg/kg, iv after 0.083 to 144 hrs by LC-MS/MS analysis; assay type: ADME, organism-based; settings: in vivo, read-out: Vdss
[11] = Drug concentration in Wistar rat brain at 10 mg/kg, po after 1 hr by LC-MS/MS analysis; assay type: ADME, organism-based; settings: read-out: Drug uptake
[12] = Drug concentration in Wistar rat brain at 10 mg/kg, po after 24 hrs by LC-MS/MS analysis; assay type: ADME, organism-based; settings: read-out: Drug uptake
[13] = Brain to plasma permeability coefficient, Kp in Wistar rat at 10 mg/kg, po after 4 hrs by LC-MS/MS analysis; assay type: ADME, organism-based
[14] = Unbound brain-to-plasma concentration ratio in Wistar rat at 10 mg/kg, po after 24 hrs by LC-MS/MS analysis; assay type: ADME, organism-based; settings: read-out: K(p,uu,brain)
[15] = Unbound brain-to-plasma concentration ratio in Wistar rat at 10 mg/kg, po after 48 hrs by LC-MS/MS analysis; assay type: ADME, organism-based; settings: read-out: K(p,uu,brain)
[16] = Tmax in Wistar rat plasma at 10 mg/kg, po after 1 to 144 hrs by LC-MS/MS analysis; assay type: ADME, organism-based
Cytochrome P450 3A4 = Cytochrome P450 3A4 (Homo sapiens, UniProt P08684); assay: Inhibition of CYP3A4 (unknown origin) up to 10 uM; assay type: ADME
Rattus norvegicus [17] = assay: Memory enhancement effect in time-delay induced Wistar rat model of amnesia assessed as increase in exploration time for novel object in retention trial at 3 mg/kg, po administered as single dose and measured on day 9 by novel object recognition test (reference value: 12.06 sec); assay type: functional
Rattus norvegicus [18] = assay: Memory enhancement effect in time-delay induced Wistar rat model of amnesia assessed as exploration time for object2 in acquisition trial at 1 mg/kg, po administered as single dose and measured on day 8 by novel object recognition test (reference value: 16.33 sec); assay type: functional
Rattus norvegicus [19] = assay: Memory enhancement effect in time-delay induced Wistar rat model of amnesia assessed as increase in exploration time for novel object in retention trial at 1 mg/kg, po administered as single dose and measured on day 9 by novel object recognition test (reference value: 12.06 sec); assay type: functional
Rattus norvegicus [20] = assay: Memory enhancement effect in time-delay induced Wistar rat model of amnesia assessed as increase in novel object discrimination index at 3 mg/kg, po administered as single dose and measured on day 9 by novel object recognition test (reference value: 0.03); assay type: functional
Rattus norvegicus [21] = assay: Memory enhancement effect in scopolamine-induced Wistar rat model of amnesia assessed as increase in exploration time for novel object in retention trial at 0.15 mg/kg, po administered as single dose and measured on day 9 by novel object recognition test (reference value: 12.09 sec); assay type: functional
Rattus norvegicus [22] = assay: Memory enhancement effect in scopolamine-induced Wistar rat model of amnesia assessed as exploration time for object1 in acquisition trial at 0.5 mg/kg, po administered as single dose and measured on day 8 by novel object recognition test (reference value: 16.11 sec); assay type: functional
Rattus norvegicus [23] = assay: Memory enhancement effect in scopolamine-induced Wistar rat model of amnesia assessed as increase in exploration time for novel object in retention trial at 0.5 mg/kg, po administered as single dose and measured on day 9 by novel object recognition test (reference value: 12.09 sec); assay type: functional
Rattus norvegicus [24] = assay: Memory enhancement effect in time-delay induced Wistar rat model of amnesia assessed as exploration time for object1 at 1 mg/kg, po administered as single dose after acquisition trial by novel object recognition test (reference value: 19.09 sec); assay type: functional
Rattus norvegicus [25] = assay: Memory enhancement effect in time-delay induced Wistar rat model of amnesia assessed as exploration time for familiar object at 1 mg/kg, po administered as single dose after acquisition trial by novel object recognition test (reference value: 10.6 sec); assay type: functional
Rattus norvegicus [26] = assay: Memory enhancement effect in time-delay induced Wistar rat model of amnesia assessed as exploration time for object2 in acquisition trial at 0.5 mg/kg, po for 7 days and measured on day 8 by novel object recognition test (reference value: 11.76 sec); assay type: functional
[27] = Drug level in Wistar rat plasma at 0.15 mg/kg, po; assay type: ADME, organism-based; settings: in vivo
Rattus norvegicus [28] = assay: Memory enhancement effect in scopolamine-induced Wistar rat model of amnesia assessed as increase in discrimination index at 0.5 mg/kg, po for 7 days and measured on day 8 by novel object recognition test (reference value: 0.21); assay type: functional
Rattus norvegicus [29] = assay: Improvement in social recognition time delay-induced Sprague-Dawley rat model of amnesia assessed as increase in reduction in social investigation time at 3 mg/kg, po administered as single dose prior to 1 hr training and measured after 30 mins (reference value: 0.39%); assay type: functional; set-up: scale not given: the % may be the effect or the level left
Rattus norvegicus [30] = assay: Improvement in social recognition scopolamine-induced Sprague-Dawley rat model of amnesia assessed as increase in reduction in social investigation time at 0.50 mg/kg, po for 7 days measured after 24 hrs (Rvb =6.59%); assay type: functional; set-up: scale not given: the % may be the effect or the level left
Rattus norvegicus [31] = assay: Improvement in social recognition scopolamine-induced Sprague-Dawley rat model of amnesia assessed as reduction in recognition index at 0.50 mg/kg, po for 7 days measured after 24 hrs (reference value: 0.93); assay type: functional
[32] = Drug level in scopolamine-induced Sprague-Dawley rat plasma at 0.05 mg/kg, po for 7 days; assay type: ADME, organism-based
[33] = Drug level in scopolamine-induced Sprague-Dawley rat plasma at 0.15 mg/kg, po for 7 days; assay type: ADME, organism-based
[34] = biological target: Neuronal acetylcholine receptor subunit alpha-7 (Homo sapiens, UniProt P36544); assay: Positive allosteric modulatory activity against alpha7 nAChR in human IMR-32 cells assessed as potentiation of PNU-282987-induced Ca2+ […] at by FLIPR assay; assay type: cell-based
Chain of Neuronal acetylcholine receptor subunit alpha-7 (P36544 whole entry): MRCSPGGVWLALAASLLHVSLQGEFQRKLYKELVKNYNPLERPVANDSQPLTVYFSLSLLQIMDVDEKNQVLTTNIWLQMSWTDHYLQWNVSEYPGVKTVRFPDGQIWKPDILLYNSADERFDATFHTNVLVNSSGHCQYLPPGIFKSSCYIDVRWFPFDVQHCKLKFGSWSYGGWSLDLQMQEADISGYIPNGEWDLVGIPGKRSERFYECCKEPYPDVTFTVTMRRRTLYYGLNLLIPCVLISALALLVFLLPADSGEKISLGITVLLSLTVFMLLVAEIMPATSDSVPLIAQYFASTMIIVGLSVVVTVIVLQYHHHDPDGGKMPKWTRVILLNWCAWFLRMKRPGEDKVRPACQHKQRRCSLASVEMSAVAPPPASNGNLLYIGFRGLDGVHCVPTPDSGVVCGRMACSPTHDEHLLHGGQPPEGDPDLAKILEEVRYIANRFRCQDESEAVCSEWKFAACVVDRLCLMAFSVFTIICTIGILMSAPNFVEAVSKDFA

Chain of Cytochrome P450 3A4 (P08684 whole entry): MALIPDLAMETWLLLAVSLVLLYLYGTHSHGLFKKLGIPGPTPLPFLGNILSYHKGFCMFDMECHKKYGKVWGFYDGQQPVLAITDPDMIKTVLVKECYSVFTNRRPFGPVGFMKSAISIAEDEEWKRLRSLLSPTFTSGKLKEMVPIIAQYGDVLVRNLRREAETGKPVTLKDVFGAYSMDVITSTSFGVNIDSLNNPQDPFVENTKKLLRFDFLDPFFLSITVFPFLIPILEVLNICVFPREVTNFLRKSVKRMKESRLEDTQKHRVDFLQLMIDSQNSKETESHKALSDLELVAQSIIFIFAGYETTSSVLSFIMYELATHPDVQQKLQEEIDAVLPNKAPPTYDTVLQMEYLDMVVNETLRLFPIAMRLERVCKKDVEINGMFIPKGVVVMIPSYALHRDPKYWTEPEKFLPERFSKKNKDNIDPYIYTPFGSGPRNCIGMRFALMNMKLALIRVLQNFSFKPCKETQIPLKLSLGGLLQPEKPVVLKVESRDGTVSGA

`CCC(=O)c1sc(-c2ccc(Cl)cc2)c(C)c1-c1ccc(S(N)(=O)=O)cc1` gave a Drug metabolism [1] of 0.03 nmol/min/mg, a remaining at 0.5 h, 1 µM [2] of 93% and an AUC(0-t) at 144 h [3] of 27 µM·h. The AUC(0-t) [4] was 282 µM·h, the Cmax [5] was 900 nM and the Tmax [6] was 0.25 h. It also gave a Tmax [7] of 1.5 h, a half-life [8] of 45 h and a half-life [9] of 22 h. For the same molecule, the Vd [10] was 4.3 L/kg, the concentration at 1 h [11] was 4030 nM and the concentration at 24 h [12] was 6520 nM. For the same molecule, the Kp at 4 h [13] was 10.7, the Kp uu at 24 h [14] was 1.07 and the Kp uu at 48 h [15] was 1.15. For the same molecule, the Tmax [16] was 1 h, the “inhibition (INH)” value (Cytochrome P450 3A4) was “Not Active” and the Time (Rattus norvegicus [17]) was 26.25 s. For the same molecule, the Time (Rattus norvegicus [18]) was 23.96 s, the Time (Rattus norvegicus [19]) was 25.93 s and the Activity_index (Rattus norvegicus [20]) was 0.48. It also gave a Time (Rattus norvegicus [21]) of 12.8 s, a Time (Rattus norvegicus [22]) of 13.94 s and a Time (Rattus norvegicus [23]) of 15.06 s. The Time (Rattus norvegicus [24]) was 20.6 s, the Time (Rattus norvegicus [25]) was 11.94 s and the Time (Rattus norvegicus [26]) was 12.42 s. It also gave a concentration [27] of 70 nM, an Activity_index (Rattus norvegicus [28]) of 0.45 and an Activity (Rattus norvegicus [29]) of 52.87%. It also gave an Activity (Rattus norvegicus [30]) of 25.35%, an Activity_index (Rattus norvegicus [31]) of 0.75 and a concentration at 168 h [32] of 60 nM. The concentration at 168 h [33] was 180 nM and the EC50 [34] was 324 nM.
